# Experimental data taken from patent publication US11572590B2, “Methods for evaluating tumor cell spheroids using 3D microfluidic cell culture device” (Dana-Farber Cancer Institute, Inc., priority 2017, dated 2023).
# Like-named read-outs stand apart in the source and are kept apart here.
# Key:
# Experiment in all cases: SelectScreen Kinase Profiling, single point inhibition and IC50 for off-target kinases
# Type in all cases: biochemical
# [1] = target: off-target kinases (Homo sapiens, UniProt Q5VT25); conditions: CDC42 BPA (MRCKA), ZLYTE, ATP Km app
# [2] = target: T1, off-target kinases (Homo sapiens, UniProt Q99759); conditions: MAP3K3 (MEKK3), LanthaScreen Binding
# T1 sequence (Q99759 1-626): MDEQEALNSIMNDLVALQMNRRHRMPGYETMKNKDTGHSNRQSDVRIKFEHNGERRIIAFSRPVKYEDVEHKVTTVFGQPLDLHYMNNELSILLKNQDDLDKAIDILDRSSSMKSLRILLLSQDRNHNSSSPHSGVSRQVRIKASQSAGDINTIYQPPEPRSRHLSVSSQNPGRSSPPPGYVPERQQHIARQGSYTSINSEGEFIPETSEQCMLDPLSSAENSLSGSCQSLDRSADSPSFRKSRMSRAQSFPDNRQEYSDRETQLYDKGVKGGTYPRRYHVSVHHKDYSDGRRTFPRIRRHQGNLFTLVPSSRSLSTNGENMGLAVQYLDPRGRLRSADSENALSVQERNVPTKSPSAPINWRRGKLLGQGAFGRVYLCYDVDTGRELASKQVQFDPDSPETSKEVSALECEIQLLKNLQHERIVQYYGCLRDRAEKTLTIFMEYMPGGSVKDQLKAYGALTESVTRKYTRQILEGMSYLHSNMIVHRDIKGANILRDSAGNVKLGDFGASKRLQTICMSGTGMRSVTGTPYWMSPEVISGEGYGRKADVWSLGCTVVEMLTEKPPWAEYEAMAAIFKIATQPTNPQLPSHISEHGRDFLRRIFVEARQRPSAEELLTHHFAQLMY
# [3] = target: off-target kinases (Homo sapiens, UniProt O43353); conditions: RIPK2, LanthaScreen Binding
# [4] = target: off-target kinases (Homo sapiens, UniProt P22607); conditions: FGFR3, ZLYTE, ATP Km app
# off-target kinases (Homo sapiens, UniProt P22607), sequence (P22607 23-806): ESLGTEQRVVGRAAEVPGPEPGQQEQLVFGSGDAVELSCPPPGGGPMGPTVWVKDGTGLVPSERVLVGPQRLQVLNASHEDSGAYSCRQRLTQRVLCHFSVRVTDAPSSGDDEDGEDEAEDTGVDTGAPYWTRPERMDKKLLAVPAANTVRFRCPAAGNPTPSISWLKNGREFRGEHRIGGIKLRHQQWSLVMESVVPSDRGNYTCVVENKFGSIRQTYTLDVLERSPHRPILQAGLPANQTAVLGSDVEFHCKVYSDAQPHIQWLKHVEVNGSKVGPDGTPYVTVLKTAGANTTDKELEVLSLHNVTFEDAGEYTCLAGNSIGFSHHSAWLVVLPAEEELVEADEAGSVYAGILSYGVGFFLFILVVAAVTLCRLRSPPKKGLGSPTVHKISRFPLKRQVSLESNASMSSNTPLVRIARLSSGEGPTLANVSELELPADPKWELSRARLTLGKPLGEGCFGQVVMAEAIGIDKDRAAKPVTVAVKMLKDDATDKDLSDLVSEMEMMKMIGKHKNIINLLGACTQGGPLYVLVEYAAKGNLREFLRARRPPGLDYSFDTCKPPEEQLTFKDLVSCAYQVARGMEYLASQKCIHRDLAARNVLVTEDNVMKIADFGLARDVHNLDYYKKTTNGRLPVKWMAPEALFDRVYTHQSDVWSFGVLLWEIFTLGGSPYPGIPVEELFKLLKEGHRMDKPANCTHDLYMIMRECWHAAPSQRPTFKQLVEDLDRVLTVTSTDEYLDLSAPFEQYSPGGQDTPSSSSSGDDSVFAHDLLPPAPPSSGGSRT
# off-target kinases (Homo sapiens, UniProt O43353), sequence (O43353 whole entry): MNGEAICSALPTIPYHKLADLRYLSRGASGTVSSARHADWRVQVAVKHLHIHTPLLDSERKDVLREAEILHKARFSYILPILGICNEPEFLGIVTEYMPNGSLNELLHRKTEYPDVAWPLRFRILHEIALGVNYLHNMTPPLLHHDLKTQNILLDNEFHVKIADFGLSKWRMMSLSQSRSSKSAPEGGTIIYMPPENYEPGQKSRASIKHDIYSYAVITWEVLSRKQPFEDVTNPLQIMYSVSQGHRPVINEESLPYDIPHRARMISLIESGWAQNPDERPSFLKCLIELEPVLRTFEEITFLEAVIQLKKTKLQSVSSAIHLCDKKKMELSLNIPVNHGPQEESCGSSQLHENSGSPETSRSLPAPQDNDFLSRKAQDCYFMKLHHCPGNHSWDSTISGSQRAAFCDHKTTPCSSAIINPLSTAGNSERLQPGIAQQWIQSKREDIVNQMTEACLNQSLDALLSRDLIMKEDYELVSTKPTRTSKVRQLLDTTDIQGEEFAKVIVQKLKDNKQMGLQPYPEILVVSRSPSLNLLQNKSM
# off-target kinases (Homo sapiens, UniProt Q5VT25), sequence (Q5VT25 whole entry): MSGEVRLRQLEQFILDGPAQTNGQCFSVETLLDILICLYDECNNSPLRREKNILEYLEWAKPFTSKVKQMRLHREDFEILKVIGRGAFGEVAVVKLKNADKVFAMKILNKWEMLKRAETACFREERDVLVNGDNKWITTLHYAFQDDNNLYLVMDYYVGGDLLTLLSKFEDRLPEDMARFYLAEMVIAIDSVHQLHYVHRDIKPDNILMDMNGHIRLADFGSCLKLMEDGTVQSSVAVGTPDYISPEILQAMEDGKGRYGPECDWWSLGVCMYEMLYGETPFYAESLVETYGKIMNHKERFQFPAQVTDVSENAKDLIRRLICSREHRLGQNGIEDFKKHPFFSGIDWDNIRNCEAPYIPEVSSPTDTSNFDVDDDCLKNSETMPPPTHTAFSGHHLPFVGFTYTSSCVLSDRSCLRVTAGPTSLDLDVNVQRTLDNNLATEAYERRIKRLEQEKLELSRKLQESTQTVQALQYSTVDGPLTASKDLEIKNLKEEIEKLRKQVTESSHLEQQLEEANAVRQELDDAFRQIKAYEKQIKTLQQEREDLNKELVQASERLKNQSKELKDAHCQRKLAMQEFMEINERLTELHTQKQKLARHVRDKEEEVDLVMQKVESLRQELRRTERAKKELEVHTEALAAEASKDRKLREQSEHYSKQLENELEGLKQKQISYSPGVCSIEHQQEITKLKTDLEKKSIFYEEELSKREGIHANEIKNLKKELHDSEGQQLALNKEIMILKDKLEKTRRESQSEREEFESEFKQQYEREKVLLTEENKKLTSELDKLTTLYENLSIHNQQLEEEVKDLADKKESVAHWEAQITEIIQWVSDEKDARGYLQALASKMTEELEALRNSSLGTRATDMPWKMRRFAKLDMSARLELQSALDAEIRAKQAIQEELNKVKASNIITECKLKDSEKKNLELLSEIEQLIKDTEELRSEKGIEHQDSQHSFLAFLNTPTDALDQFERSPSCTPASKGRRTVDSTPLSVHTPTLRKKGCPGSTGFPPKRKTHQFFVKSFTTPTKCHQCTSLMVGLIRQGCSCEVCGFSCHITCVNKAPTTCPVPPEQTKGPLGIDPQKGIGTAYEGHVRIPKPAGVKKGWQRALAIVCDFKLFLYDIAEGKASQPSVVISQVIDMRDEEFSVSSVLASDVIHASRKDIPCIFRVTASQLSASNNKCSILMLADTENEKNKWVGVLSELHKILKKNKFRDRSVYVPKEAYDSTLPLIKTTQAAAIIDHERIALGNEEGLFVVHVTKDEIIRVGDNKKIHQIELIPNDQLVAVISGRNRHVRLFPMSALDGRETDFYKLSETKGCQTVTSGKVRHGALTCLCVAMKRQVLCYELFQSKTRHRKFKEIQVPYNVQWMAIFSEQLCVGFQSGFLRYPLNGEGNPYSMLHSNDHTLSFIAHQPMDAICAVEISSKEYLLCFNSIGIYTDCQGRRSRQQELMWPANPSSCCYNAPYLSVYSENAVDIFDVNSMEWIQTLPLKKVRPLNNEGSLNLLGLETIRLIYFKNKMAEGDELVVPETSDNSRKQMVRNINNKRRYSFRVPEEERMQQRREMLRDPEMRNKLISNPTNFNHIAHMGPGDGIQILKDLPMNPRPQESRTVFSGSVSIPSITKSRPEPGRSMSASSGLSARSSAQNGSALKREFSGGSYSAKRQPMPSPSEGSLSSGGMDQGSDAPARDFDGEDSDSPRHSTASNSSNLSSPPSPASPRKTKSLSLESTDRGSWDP
compound,measurement,setting,value
"N#Cc1cc(-c2ncnc(Nc3ccc(N4CCN(C5COC5)CC4)cc3)n2)ccc1OC1CCOCC1 [Compound 1, 5-(4-((4-(4-(oxetan-3-yl)piperazin-1-yl)phenyl)amino)-1,3,5-triazin-2-yl)-2-((tetrahydro-2H-pyran-4-yl)oxy)benzonitrile]",inhibition,[1]; read-out: % Inhibition 1,4%
same,inhibition,[1]; read-out: % Inhibition 2,4%
same,inhibition,[1]; read-out: % Inhibition Avg,4%
same,inhibition,[2]; read-out: % Inhibition 1,10%
same,inhibition,[2]; read-out: % Inhibition 2,13%
same,inhibition,[2]; read-out: % Inhibition Avg,12%
same,inhibition,[3]; read-out: % Inhibition 1,84%
same,inhibition,[3]; read-out: % Inhibition 2,86%
same,inhibition,[3]; read-out: % Inhibition Avg,85%
same,inhibition,[4]; read-out: % Inhibition 1,6%
same,inhibition,[4]; read-out: % Inhibition 2,4%
same,inhibition,[4]; read-out: % Inhibition Avg,5%
